The values that follow come from ChEMBL document CHEMBL3875150, “Biological evaluation of some new N-(2,6-dimethoxypyrimidinyl) thioureido benzenesulfonamide derivatives as potential antimicrobial and anticancer agents” (Eur J Med Chem, 2016).

The subject of experiment [1] is Streptococcus pneumoniae. Briefly: Antibacterial activity against Streptococcus pneumoniae RCMB 010010 after 24 to 48 hrs by agar well diffusion method. The class given is functional. On the technique in general: Agar diffusion results depend on both activity and mobility in agar.
Experiment [2] relates to Escherichia coli. Briefly: Antibacterial activity against Escherichia coli RCMB 010052 after 24 to 48 hrs by agar well diffusion method. The class given is functional.
Experiment [3] has as its system Pseudomonas aeruginosa. Put plainly: Antibacterial activity against Pseudomonas aeruginosa RCMB 010043 after 24 to 48 hrs by agar well diffusion method. The class given is functional.
The test system of experiment [4] is Candida albicans. Put plainly: Antifungal activity against Candida albicans RCMB 005036 after 24 to 48 hrs by agar well diffusion method. The class given is functional.
Experiment [5] relates to Candida albicans. Put plainly: Antifungal activity against Candida albicans RCMB 005036 assessed as diameter of inhibition zone at 1 mg/mL after 24 to 48 hrs by agar well diffusion method. In kind it is functional. To be noted: read-out: DIZ.
Experiment [6] concerns Bacillus subtilis. Briefly: Antibacterial activity against Bacillus subtilis RCMB 010067 after 24 to 48 hrs by agar well diffusion method. In kind it is functional.
Experiment [7] concerns MCF7. Put plainly: (§1) Cytotoxicity against human MCF7 cells assessed as decrease in cell viability after 24 hrs by MTT assay. The class given is functional, cell-based. (In general: Formazan colour is commonly taken as a measure of viable cells.)
Experiment [8] in a line: as §1. The class given is functional, cell-based. The conditions noted are these: MCF7, 24 h.
The test system of experiment [9] is Aspergillus fumigatus. Put plainly: Antifungal activity against Aspergillus fumigatus RCMB 002568 after 24 to 48 hrs by agar well diffusion method. The class given is functional.
Experiment [10] relates to Escherichia coli. Put plainly: Antibacterial activity against Escherichia coli RCMB 010052 assessed as diameter of inhibition zone at 1 mg/mL after 24 to 48 hrs by agar well diffusion method. In kind it is functional. To be noted: read-out: DIZ.
The subject of experiment [11] is Streptococcus pneumoniae. Briefly: Antibacterial activity against Streptococcus pneumoniae RCMB 010010 assessed as diameter of inhibition zone at 1 mg/mL after 24 to 48 hrs by agar well diffusion method. The class given is functional. The conditions noted are these: read-out: DIZ.
Experiment [12] relates to MCF7. Briefly: Potency index, ratio of 5-fluorouracil IC50 to test compound IC50 for human MCF7 cells. The class given is functional.
Experiment [13] relates to Pseudomonas aeruginosa. Put plainly: Antibacterial activity against Pseudomonas aeruginosa RCMB 010043 assessed as diameter of inhibition zone at 1 mg/mL after 24 to 48 hrs by agar well diffusion method. The class given is functional. The conditions noted are these: read-out: DIZ.
Experiment [14] deals with Bacillus subtilis. Put plainly: Antibacterial activity against Bacillus subtilis RCMB 010067 assessed as diameter of inhibition zone at 1 mg/mL after 24 to 48 hrs by agar well diffusion method. To be noted: read-out: DIZ. In kind it is functional.
Experiment [15] concerns Aspergillus fumigatus. Put plainly: Antifungal activity against Aspergillus fumigatus RCMB 002568 assessed as diameter of inhibition zone at 1 mg/mL after 48 hrs by agar well diffusion method. The class given is functional. The conditions noted are these: RCMB 002568, 48 h, read-out: DIZ.

Structures are written as SMILES. Converted amounts (≈) assume the structure as drawn.

What is called MIC is the lowest concentration found to suppress growth. Low values mean a more susceptible organism, high ones a less susceptible organism. What is called IC50 is the midpoint of a concentration-inhibition curve. As for `COc1cc(NS(=O)(=O)c2ccc(NC(=S)NC3CCN(Cc4ccccc4)CC3)cc2)nc(OC)n1`, the MIC turned out to be 15.6 µg/mL (≈ 28.8 µM) with Streptococcus pneumoniae [1]; 62.5 µg/mL (≈ 115 µM) with Escherichia coli [2]; 500 µg/mL (≈ 921 µM) in the experiment with Pseudomonas aeruginosa [3]; 125 µg/mL (≈ 230 µM) with Candida albicans [4]; 7.81 µg/mL (≈ 14.4 µM) against Bacillus subtilis [6]; 125 µg/mL (≈ 230 µM) against Aspergillus fumigatus [9]. The zone of inhibition at 1000 µg/mL stood at 12.7 mm in the experiment with Candida albicans [5]; 16.3 mm in the experiment on Escherichia coli [10]; 17.3 mm in the experiment with Streptococcus pneumoniae [11]; 8.2 mm in the experiment on Pseudomonas aeruginosa [13]; 18.4 mm in the experiment with Bacillus subtilis [14]; 14.2 mm with Aspergillus fumigatus [15]. The Activity result with MCF7 [7] is “Dose-dependent effect”. The IC50 in experiment [8] worked out at 1.72 µg/mL (≈ 3.17 µM). In the experiment with MCF7 [12], the “Ratio IC50” value is 3.

For `COc1cc(NS(=O)(=O)c2ccc(NC(=S)Nc3ccc4c(C)cc(=O)oc4c3)cc2)nc(OC)n1`, the MIC stood at 3.9 µg/mL (≈ 7.39 µM) in the experiment with Streptococcus pneumoniae [1]; 1.95 µg/mL (≈ 3.7 µM) against Escherichia coli [2]; 125 µg/mL (≈ 237 µM) in the experiment with Pseudomonas aeruginosa [3]; 7.81 µg/mL (≈ 14.8 µM) with Candida albicans [4]; 1.95 µg/mL (≈ 3.7 µM) in the experiment on Bacillus subtilis [6]; 3.9 µg/mL (≈ 7.39 µM) in the experiment with Aspergillus fumigatus [9]. The zone of inhibition at 1000 µg/mL in the experiment on Candida albicans [5] was found to be 18.1 mm; in the experiment with Escherichia coli [10], 23.4 mm; in the experiment with Streptococcus pneumoniae [11], 20.6 mm; in the experiment with Pseudomonas aeruginosa [13] it was 10.6 mm; in the experiment on Bacillus subtilis [14] it was 23.4 mm; in the experiment on Aspergillus fumigatus [15] it was 20.3 mm. The Activity entry in the experiment on MCF7 [7] is “Dose-dependent effect”. In addition, the IC50 in experiment [8] is 35.2 µg/mL (≈ 66.7 µM).

Regarding `COc1cc(NS(=O)(=O)c2ccc(NC(=S)Nc3nc4c(OC)cccc4s3)cc2)nc(OC)n1`, the MIC against Streptococcus pneumoniae [1] is 7.81 µg/mL (≈ 14.7 µM); against Escherichia coli [2] it was 62.5 µg/mL (≈ 117 µM); in the experiment on Pseudomonas aeruginosa [3] it was 500 µg/mL (≈ 939 µM); against Candida albicans [4], 125 µg/mL (≈ 235 µM); against Bacillus subtilis [6] it was 7.81 µg/mL (≈ 14.7 µM); in the experiment with Aspergillus fumigatus [9], 7.81 µg/mL (≈ 14.7 µM). In addition, the zone of inhibition at 1000 µg/mL stood at 13.2 mm in the experiment on Candida albicans [5]; 16.2 mm in the experiment with Escherichia coli [10]; 17.8 mm in the experiment on Streptococcus pneumoniae [11]; 8.9 mm in the experiment with Pseudomonas aeruginosa [13]; 18.3 mm with Bacillus subtilis [14]; 16.4 mm with Aspergillus fumigatus [15]. For the same compound, the Activity result with MCF7 [7] is “Dose-dependent effect”. Further, in experiment [8], the IC50 was 47.6 µg/mL (≈ 89.4 µM).

Turning to `COc1cc(NS(=O)(=O)c2ccc(NC(=S)Nc3cccc4nsnc34)cc2)nc(OC)n1`, the MIC was determined as 1.95 µg/mL (≈ 3.87 µM) in the experiment on Streptococcus pneumoniae [1]; 0.98 µg/mL (≈ 1.95 µM) with Escherichia coli [2]; 250 µg/mL (≈ 496 µM) against Pseudomonas aeruginosa [3]; 3.9 µg/mL (≈ 7.74 µM) against Candida albicans [4]; 0.98 µg/mL (≈ 1.95 µM) in the experiment with Bacillus subtilis [6]; 1.95 µg/mL (≈ 3.87 µM) against Aspergillus fumigatus [9]. For the same compound, the zone of inhibition at 1000 µg/mL with Candida albicans [5] stood at 20.4 mm; in the experiment on Escherichia coli [10], 24.2 mm; in the experiment on Streptococcus pneumoniae [11] it was 22.7 mm; in the experiment with Pseudomonas aeruginosa [13] it was 11.7 mm; in the experiment with Bacillus subtilis [14], 26.3 mm; in the experiment with Aspergillus fumigatus [15] it was 22.3 mm. Besides, the Activity result in the experiment with MCF7 [7] was “Dose-dependent effect”. Moreover, in experiment [8], the concentration for half-maximal inhibition (IC50) was more than 200 µg/mL.

Consider `COc1cc(NS(=O)(=O)c2ccc(NC(=S)Nc3cc(=O)[nH]c(=O)[nH]3)cc2)nc(OC)n1`, for which the MIC with Streptococcus pneumoniae [1] worked out at 1.95 µg/mL (≈ 4.07 µM); against Escherichia coli [2], 0.98 µg/mL (≈ 2.04 µM); against Pseudomonas aeruginosa [3] it was 500 µg/mL (≈ 1040 µM); in the experiment on Candida albicans [4] it was 3.9 µg/mL (≈ 8.13 µM); in the experiment on Bacillus subtilis [6], 0.98 µg/mL (≈ 2.04 µM); in the experiment on Aspergillus fumigatus [9], 3.9 µg/mL (≈ 8.13 µM). Besides, the zone of inhibition at 1000 µg/mL in the experiment with Candida albicans [5] stood at 20.1 mm; with Escherichia coli [10] it was 24.3 mm; with Streptococcus pneumoniae [11], 22.3 mm; with Pseudomonas aeruginosa [13], 8.5 mm; in the experiment with Bacillus subtilis [14], 26.1 mm; with Aspergillus fumigatus [15] it was 21.3 mm. Further, in the experiment on MCF7 [7], the Activity entry was “Dose-dependent effect”. In addition, the IC50 in experiment [8] came out at 37.3 µg/mL (≈ 77.8 µM).

On to `COc1cc(NS(=O)(=O)c2ccc(NC(=S)Nc3cc(C)nc4ccccc34)cc2)nc(OC)n1`, for which the MIC against Streptococcus pneumoniae [1] turned out to be 125 µg/mL (≈ 245 µM); in the experiment with Escherichia coli [2], 125 µg/mL (≈ 245 µM); in the experiment on Pseudomonas aeruginosa [3], 500 µg/mL (≈ 979 µM); in the experiment with Candida albicans [4], 125 µg/mL (≈ 245 µM); in the experiment with Bacillus subtilis [6] it was 125 µg/mL (≈ 245 µM); against Aspergillus fumigatus [9], 125 µg/mL (≈ 245 µM). Besides, the zone of inhibition at 1000 µg/mL in the experiment with Candida albicans [5] was 14.5 mm; with Escherichia coli [10] it was 15 mm; with Streptococcus pneumoniae [11], 13.9 mm; in the experiment on Pseudomonas aeruginosa [13], 8.9 mm; in the experiment on Bacillus subtilis [14] it was 14.4 mm; in the experiment on Aspergillus fumigatus [15], 13.7 mm. The Activity entry with MCF7 [7] is “Dose-dependent effect”. Moreover, in experiment [8], the IC50 was 68.7 µg/mL (≈ 135 µM).

Turning to `COc1cc(NS(=O)(=O)c2ccc(NC(=S)NN3C(=O)CSC3=S)cc2)nc(OC)n1`, the MIC with Streptococcus pneumoniae [1] was found to be 0.98 µg/mL (≈ 1.96 µM); in the experiment with Escherichia coli [2] it was 0.49 µg/mL (≈ 0.979 µM); against Pseudomonas aeruginosa [3], 62.5 µg/mL (≈ 125 µM); in the experiment on Candida albicans [4], 1.95 µg/mL (≈ 3.9 µM); against Bacillus subtilis [6], 0.49 µg/mL (≈ 0.979 µM); with Aspergillus fumigatus [9] it was 0.98 µg/mL (≈ 1.96 µM). The zone of inhibition at 1000 µg/mL in the experiment on Candida albicans [5] was 22.3 mm; in the experiment on Escherichia coli [10], 27.2 mm; in the experiment with Streptococcus pneumoniae [11] it was 24.3 mm; in the experiment with Pseudomonas aeruginosa [13], 14.9 mm; in the experiment on Bacillus subtilis [14], 28.1 mm; in the experiment on Aspergillus fumigatus [15], 24.3 mm. In addition, the Activity result in the experiment with MCF7 [7] was “Dose-dependent effect”. The IC50 in experiment [8] turned out to be 47.7 µg/mL (≈ 95.3 µM).
